Experiments:
SRC = SRC (Homo sapiens, UniProt P12931); test: SRC Biochemical Assay Protocol (microfluidic mobility shift assay, FLPeptide4 substrate)
Outline: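 Recombinant SRC (0.26 nM) preincubated 30 min at RT with compound (0.0017–100 μM) and 1.5 μM FLPeptide4, then 50 μM ATP added; 90 min reaction in HEPES pH 7.4, 10 mM MgCl2, 1% DMSO, EDTA-quenched. Phosphopeptide quantified by microfluidic mobility shift; IC50 from 4-parameter logistic fit.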

[1] = test system: phospho-S6RP (Ser 235/236) in RBE cells; test: Cellular Proliferation Protocol (cellular phospho-S6RP HTRF), RBE cells; assay type: cell-based; conditions: 6 hours treatment, RBE or SNU-1079 cells, cell line not given
Outline: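 RBE cells, 2000/well, seeded 24 h before 6 h compound treatment at 37° C. Lysates were probed with a Eu-cryptate/d2 HTRF antibody sandwich for phospho-S6RP (Ser 235/236), incubated overnight at room temperature. Signal normalised to DMSO control and IC50 fitted to a 4-parameter curve.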

RBE cells = test: Cell Viability Protocol (CellTiterGlo), RBE cells; assay type: cell-based; conditions: RBE or SNU-1079 cells, 72 or 120 hour, cell line and time not given
Outline: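 RBE cells plated at 1200/well in RPMI 1640 with 10% FBS, incubated 24 h, then dosed with compound from DMSO stocks and incubated 72 or 120 h at 37° C. CellTiterGlo luminescence normalised to DMSO control; IC50 from 4-parameter fit.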

Sequence of SRC (P12931 whole entry, species assumed): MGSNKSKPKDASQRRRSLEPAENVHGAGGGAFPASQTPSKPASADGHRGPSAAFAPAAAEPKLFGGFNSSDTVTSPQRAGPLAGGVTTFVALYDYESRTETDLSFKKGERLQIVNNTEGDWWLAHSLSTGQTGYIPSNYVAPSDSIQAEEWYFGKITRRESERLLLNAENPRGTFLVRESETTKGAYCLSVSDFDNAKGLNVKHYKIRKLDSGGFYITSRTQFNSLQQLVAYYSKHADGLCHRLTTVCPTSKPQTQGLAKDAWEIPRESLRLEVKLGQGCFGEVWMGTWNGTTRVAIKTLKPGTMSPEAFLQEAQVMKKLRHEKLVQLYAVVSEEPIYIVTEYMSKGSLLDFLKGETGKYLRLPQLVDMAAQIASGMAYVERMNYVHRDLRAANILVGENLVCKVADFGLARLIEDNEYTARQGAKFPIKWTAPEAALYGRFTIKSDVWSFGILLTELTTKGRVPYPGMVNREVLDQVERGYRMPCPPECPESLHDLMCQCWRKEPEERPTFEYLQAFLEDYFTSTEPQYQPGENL

| SMILES | IC50 (SRC) | IC50 ([1]; 6 h) | IC50 (RBE cells) | IC50 [1] |
| --- | --- | --- | --- | --- |
| COc1cc(Oc2cccc(C)n2)ccc1-c1c(C#C[C@@H]2[C@H]3CN(C(=O)/C=C/CN(C)C)C[C@@H]23)n(C)c2ncnc(N)c12 [II-226, (E)-1-((1R,5S,6s)-6-((4-amino-5-(2-methoxy-4-((6-methylpyridin-2-yl)oxy)phenyl)-7-methyl-7H-pyrrolo[2,3-d]pyrimidin-6-yl)ethynyl)-3-azabicyclo[3.1.0]hexan-3-yl)-4-(dimethylamino) but-2-en-1-one] | 0.01 to 1 µM | 0.01 to 1 µM | 0.01 to 1 µM | – |
| COc1cc(Oc2ccccn2)ccc1-c1c(C#C[C@@H]2[C@H]3CN(C(=O)/C=C/CN(C)C)C[C@@H]23)n(C)c2ncnc(N)c12 [II-227, (E)-1-((1R,5S,6s)-6-((4-amino-5-(2-methoxy-4-(pyridin-2-yloxy)phenyl)-7-methyl-7H-pyrrolo[2,3-d]pyrimidin-6-yl)ethynyl)-3-azabicyclo[3.1.0]hexan-3-yl)-4-(dimethylamino) but-2-en-1-one] | 0.01 to 1 µM | 0.01 to 1 µM | 0.01 to 1 µM | – |
| COc1cc(Oc2ccccc2F)ccc1-c1c(C#C[C@@H]2[C@H]3CN(C(=O)/C=C/CN(C)C)C[C@@H]23)n(C)c2ncnc(N)c12 [II-228, (E)-1-((1R,5S,6s)-6-((4-amino-5-(4-(2-fluorophenoxy)-2-methoxyphenyl)-7-methyl-7H-pyrrolo[2,3-d]pyrimidin-6-yl)ethynyl)-3-azabicyclo[3.1.0]hexan-3-yl)-4-(dimethylamino) but-2-en-1-one] | 0.01 to 1 µM | 0.01 to 1 µM | 0.01 to 1 µM | – |
| C=CC(=O)N1C[C@@H]2[C@@H](C#Cc3c(-c4ccc(Oc5ccccc5)cc4)c4c(N)ncnc4n3CCOC)[C@@H]2C1 [II-229, 1-((1R,5S,6s)-6-((4-amino-7-(2-methoxyethyl)-5-(4-phenoxyphenyl)-7H-pyrrolo[2,3-d]pyrimidin-6-yl)ethynyl)-3-azabicyclo[3.1.0]hexan-3-yl)prop-2-en-1-one] | ≤ 0.01 µM | ≤ 0.01 µM | ≤ 0.01 µM | – |
| Cc1cccc(Oc2ccc(-c3c(C#C[C@@H]4[C@H]5CN(C(=O)/C=C/CN6CCC(F)C6)C[C@@H]45)n(C)c4ncnc(N)c34)cc2)n1 (stereo partly drawn) [II-230, (E)-1-((1R,5S,6s)-6-((4-amino-7-methyl-5-(4-((6-methylpyridin-2-yl)oxy)phenyl)-7H-pyrrolo[2,3-d]pyrimidin-6-yl)ethynyl)-3-azabicyclo[3.1.0]hexan-3-yl)-4-(3-fluoropyrrolidin-1-yl)but-2-en-1-one] | 0.01 to 1 µM | 0.01 to 1 µM | 0.01 to 1 µM | – |
| COCCN(C)C/C=C/C(=O)N1C[C@@H]2[C@@H](C#Cc3c(-c4ccc(Oc5cccc(F)c5)cc4)c4c(N)ncnc4n3C)[C@@H]2C1 [II-232, (E)-1-((1R,5S,6s)-6-((4-amino-5-(4-(3-fluorophenoxy)phenyl)-7-methyl-7H-pyrrolo[2,3-d]pyrimidin-6-yl)ethynyl)-3-azabicyclo[3.1.0]hexan-3-yl)-4-((2-methoxyethyl) (methyl)amino)but-2-en-1-one] | 0.01 to 1 µM | 0.01 to 1 µM | 0.01 to 1 µM | – |
| Cn1c(C#C[C@@H]2[C@H]3CN(C(=O)/C=C/CN4CCC(F)C4)C[C@@H]23)c(-c2ccc(Oc3cccc(F)c3)cc2)c2c(N)ncnc21 (stereo partly drawn) [II-234, (E)-1-((1R,5S,6s)-6-((4-amino-5-(4-(3-fluorophenoxy)phenyl)-7-methyl-7H-pyrrolo[2,3-d]pyrimidin-6-yl)ethynyl)-3-azabicyclo[3.1.0]hexan-3-yl)-4-(3-fluoropyrrolidin-1-yl)but-2-en-1-one] | 0.01 to 1 µM | 0.01 to 1 µM | 0.01 to 1 µM | – |
| COCCN(C)C/C=C/C(=O)N1C[C@@H]2[C@@H](C#Cc3c(-c4ccc(Oc5cccc(C)n5)c(OC)c4)c4c(N)ncnc4n3C)[C@@H]2C1 [II-237, (E)-1-((1R,5S,6s)-6-((4-amino-5-(3-methoxy-4-((6-methylpyridin-2-yl)oxy)phenyl)-7-methyl-7H-pyrrolo[2,3-d]pyrimidin-6-yl)ethynyl)-3-azabicyclo[3.1.0]hexan-3-yl)-4-((2-methoxyethyl) (methyl)amino)but-2-en-1-one] | 0.01 to 1 µM | 0.01 to 1 µM | 0.01 to 1 µM | – |
| COc1cc(-c2c(C#C[C@@H]3[C@H]4CN(C(=O)/C=C/CN5CCC(F)C5)C[C@@H]34)n(C)c3ncnc(N)c23)ccc1Oc1cccc(C)n1 (stereo partly drawn) [II-238, (E)-1-((1R,5S,6s)-6-((4-amino-5-(3-methoxy-4-((6-methylpyridin-2-yl)oxy)phenyl)-7-methyl-7H-pyrrolo[2,3-d]pyrimidin-6-yl)ethynyl)-3-azabicyclo[3.1.0]hexan-3-yl)-4-(3-fluoropyrrolidin-1-yl)but-2-en-1-one] | 0.01 to 1 µM | 0.01 to 1 µM | 0.01 to 1 µM | – |
| COc1cc(-c2c(C#C[C@@H]3[C@H]4CN(C(=O)/C=C/CN(C)C)C[C@@H]34)n(C)c3ncnc(N)c23)ccc1Oc1cccc(C)n1 [II-239, (E)-1-((1R,5S,6s)-6-((4-amino-5-(3-methoxy-4-((6-methylpyridin-2-yl)oxy)phenyl)-7-methyl-7H-pyrrolo[2,3-d]pyrimidin-6-yl)ethynyl)-3-azabicyclo[3.1.0]hexan-3-yl)-4-(dimethylamino) but-2-en-1-one] | 0.01 to 1 µM | 0.01 to 1 µM | 0.01 to 1 µM | – |
| Cc1ccnc(Oc2ccc(-c3c(C#C[C@@H]4[C@H]5CN(C(=O)/C=C/CN6CCC(F)C6)C[C@@H]45)n(C)c4ncnc(N)c34)cc2)c1 (stereo partly drawn) [II-240, (E)-1-((1R,5S,6s)-6-((4-amino-7-methyl-5-(4-((4-methylpyridin-2-yl)oxy)phenyl)-7H-pyrrolo[2,3-d]pyrimidin-6-yl)ethynyl)-3-azabicyclo[3.1.0]hexan-3-yl)-4-(3-fluoropyrrolidin-1-yl)but-2-en-1-one] | 0.01 to 1 µM | – | 0.01 to 1 µM | 0.01 to 1 µM |
| Cc1ccnc(Oc2ccc(-c3c(C#C[C@@H]4[C@H]5CN(C(=O)/C=C/CN(C)C)C[C@@H]45)n(C)c4ncnc(N)c34)cc2)c1 [II-241, (E)-1-((1R,5S,6s)-6-((4-amino-7-methyl-5-(4-((4-methylpyridin-2-yl)oxy)phenyl)-7H-pyrrolo[2,3-d]pyrimidin-6-yl)ethynyl)-3-azabicyclo[3.1.0]hexan-3-yl)-4-(dimethylamino) but-2-en-1-one] | 0.01 to 1 µM | – | 0.01 to 1 µM | 0.01 to 1 µM |
| C=CC(=O)N1CCC(N2CC(F)(C#Cc3c(-c4ccc(Oc5cccc(C)n5)c(OC)c4)c4c(N)ncnc4n3C)C2)CC1 [II-243] | 0.01 to 1 µM | 0.01 to 1 µM | 0.01 to 1 µM | – |
| C=CC(=O)N1CCC(N2CC(F)(C#Cc3c(-c4ccc(Oc5ccccc5)c(OC)c4)c4c(N)ncnc4n3C)C2)CC1 [II-246, 1-(4-(3-((4-amino-5-(3-methoxy-4-phenoxyphenyl)-7-methyl-7H-pyrrolo[2,3-d]pyrimidin-6-yl)ethynyl)-3-fluoroazetidin-1-yl)piperidin-1-yl)prop-2-en-1-one] | 0.01 to 1 µM | 0.01 to 1 µM | ≤ 0.01 µM | – |
| C=CC(=O)N1CC[C@H](N2CC(C#Cc3c(-c4ccc(Oc5ccccc5)c(OC)c4)c4c(N)ncnc4n3C)C2)[C@H](O)C1 [II-247, 1-((3R,4S)-4-(3-((4-amino-5-(3-methoxy-4-phenoxyphenyl)-7-methyl-7H-pyrrolo[2,3-d]pyrimidin-6-yl)ethynyl)azetidin-1-yl)-3-hydroxypiperidin-1-yl)prop-2-en-1-one] | ≤ 0.01 µM | ≤ 0.01 µM | ≤ 0.01 µM | – |
| C=CC(=O)N1CCC(N2CC(C#Cc3c(-c4ccc(Oc5ccccc5)c(OC)c4)c4c(N)ncnc4n3C)C2)C[C@H]1CO (stereo partly drawn) [II-248, 1-((2S)-4-(3-((4-amino-5-(3-methoxy-4-phenoxyphenyl)-7-methyl-7H-pyrrolo[2,3-d]pyrimidin-6-yl)ethynyl)azetidin-1-yl)-2-(hydroxymethyl)piperidin-1-yl)prop-2-en-1-one] | ≤ 0.01 µM | 0.01 to 1 µM | 0.01 to 1 µM | – |
| C=CC(=O)N1CCC(N2CC(C#Cc3c(-c4ccc(Cl)c(OC)c4)c4c(N)ncnc4n3C)C2)C[C@H]1CO (stereo partly drawn) [II-256] | 0.01 to 1 µM | 0.01 to 1 µM | 0.01 to 1 µM | – |
| C=CC(=O)N1C[C@@H]2[C@@H](C#Cc3c(-c4cc(Cl)ccc4OC)c4c(N)ncnc4n3C)[C@@H]2C1 [II-260] | 0.01 to 1 µM | 0.01 to 1 µM | 0.01 to 1 µM | – |
| C=CC(=O)N1CCC(N2CC(C#Cc3c(-c4cccc(Cl)c4OC)c4c(N)ncnc4n3C)C2)CC1 [II-264] | 1 to 10 µM | 1 to 10 µM | 1 to 10 µM | – |
| C=CC(=O)N1CC[C@H](N2CC(C#Cc3c(-c4cccc(Cl)c4OC)c4c(N)ncnc4n3C)C2)[C@H](O)C1 [II-266] | 0.01 to 1 µM | 1 to 10 µM | 1 to 10 µM | – |
| C=CC(=O)N1CCC(N2CC(C#Cc3c(-c4ccccc4OC)c4c(N)ncnc4n3C)C2)CC1 [II-268] | 0.01 to 1 µM | 1 to 10 µM | 1 to 10 µM | – |
| C=CC(=O)N1C[C@@H]2[C@@H](C#Cc3c(-c4ccccc4OC)c4c(N)ncnc4n3C)[C@@H]2C1 [II-269] | 0.01 to 1 µM | 0.01 to 1 µM | 0.01 to 1 µM | – |
| C=CC(=O)N1C[C@@H]2[C@@H](C#Cc3c(-c4ccc(Cl)c(OC)c4)c4c(N)ncnc4n3C(C)C)[C@@H]2C1 [II-271] | ≤ 0.01 µM | ≤ 0.01 µM | ≤ 0.01 µM | – |
| C=CC(=O)N1CC[C@H](N2CC(C#Cc3c(-c4ccccc4OC)c4c(N)ncnc4n3C)C2)[C@H](O)C1 [II-274] | 0.01 to 1 µM | 1 to 10 µM | 1 to 10 µM | – |
